molecular target: T1, Cloned Human Serotonin Receptor, Subtype 7 (h5HT7) (Homo sapiens, UniProt P34969); assay: Radioligand binding assay, [125I]LSD, cloned human 5-HT7 receptor expressed in CHO cells (Flashplate); conditions: not given
T1 construct: purchased PerkinElmer 6120512; host or cells: CHO cells
Method: Radioligand binding assays were performed using the Cloned Human Serotonin Receptor, Subtype 7 (h5HT7), expressed in CHO cells, coated on Flashplate (Basic FlashPlate Cat.: SMP200) from PerkinElmer (Cat.: 6120512). The protocol assay was essentially the recommended protocol in the Technical Data Sheet by PerkinEmer Life and Analytical Sciences. The Mass membrane protein/well was typically […] and the Receptor/well was about 9-10 fmoles. The Flashplate were let equilibrate at room temperature for one hour before the addition of the components of the assay mixture. The binding buffer was: 50 mM Tris-HCl, pH 7.4, containing 10 mM MgCl2, 0.5 mM EDTA and 0.5% BSA. The radioligand was [^125I]LSD at a final concentration of 0.82 nM. Nonspecific binding was determined with 50 µM of Clozapine. The assay volume was 25 l. TopSeal-A were applied onto Flashplate microplates and they were incubated at room temperature for 240 minutes in darkness. The radioactivity were quantified by liquid scintillation spectrophotometry (Wallac 1450 Microbeta Trilux) with a count delay of 4 minutes prior to counting and a counting time of 30 seconds per well. Competition binding data were analyzed by using the LIGAND program (Munson and Rodbard, LIGAND: A versatile, computerized approach for characterization of ligandbinding systems. Anal. Biochem. 107: 220-239, 1980) and assays were performed in triplicate determinations for each point.

T1 sequence (P34969 whole entry): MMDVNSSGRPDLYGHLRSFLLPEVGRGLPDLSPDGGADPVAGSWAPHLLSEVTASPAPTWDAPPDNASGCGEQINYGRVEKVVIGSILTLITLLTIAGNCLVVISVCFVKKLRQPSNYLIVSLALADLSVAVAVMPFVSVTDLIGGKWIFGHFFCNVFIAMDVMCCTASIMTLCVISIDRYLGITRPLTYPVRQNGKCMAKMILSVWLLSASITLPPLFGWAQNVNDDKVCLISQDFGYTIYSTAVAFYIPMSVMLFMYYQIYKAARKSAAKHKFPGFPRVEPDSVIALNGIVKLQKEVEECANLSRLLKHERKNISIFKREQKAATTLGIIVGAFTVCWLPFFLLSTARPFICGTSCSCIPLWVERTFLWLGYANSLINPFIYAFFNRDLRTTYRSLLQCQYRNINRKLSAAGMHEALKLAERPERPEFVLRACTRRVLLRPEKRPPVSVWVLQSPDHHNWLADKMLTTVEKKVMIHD

Compared with `CCc1c(C)nn(C)c1-c1ccc(OC)c(CCN(C)C)c1` [Example 3, 2-(5-(4-ethyl-1,3-dimethyl-1H-pyrazol-5-yl)-2-methoxyphenyl)-N,N-dimethyl ethanamine], `COc1ccc(-c2c(C)c(C)nn2C)cc1CCN(C)C` [Example 9, 2-(2-methoxy-5-(1,3,4-trimethyl-1H-pyrazol-5-yl)phenyl)-N,N-dimethylethanamine] is 5.3-fold lower in Ki: 599 nM for the first, 113 ± 2.6 nM for the second. The second binds more tightly here.

`CCn1nc(C)c(C)c1-c1ccc(OC)c(CCN(C)C)c1` [Example 28, 2-(5-(1-ethyl-3,4-dimethyl-1H-pyrazol-5-yl)-2-methoxyphenyl)-N,N-dimethyl ethanamine] and `COc1ccc(-c2c(C)c(C)nn2C(C)C)cc1CCN(C)C` [Example 31, 2-(5-(1-isopropyl-3,4-dimethyl-1H-pyrazol-5-yl)-2-methoxyphenyl)-N,N-dimethyl ethanamine] are within 1.5-fold of each other in Ki: 81.9 nM for the first, 83.1 nM for the second.

same assay, conditions: h5HT7 expressed in CHO cells; radioligand [125I]LSD 0.82 nM; nonspecific binding with clozapine; triplicate determinations; read-out: 5-HT7 Ki

Going from `CCc1c(C)nn(C)c1-c1cccc(CCN(C)C)c1` [Example 2, 2-(3-(4-ethyl-1,3-dimethyl-1H-pyrazol-5-yl)phenyl)-N,N-dimethylethanamine] to `Cc1nn(C)c(-c2cccc(CCN(C)C)c2)c1C` [Example 8, N,N-dimethyl-2-(3-(1,3,4-trimethyl-1H-pyrazol-5-yl)phenyl)ethanamine], the Ki falls from 597 nM to 261 ± 102 nM (2.3-fold).

First: CCc1c(C)nn(C)c1-c1ccc(O)c(CCN(C)C)c1 [Example 4, 2-(2-(dimethylamino)ethyl)-4-(4-ethyl-1,3-dimethyl-1H-pyrazol-5-yl)phenol]
Second: Cc1nn(C)c(-c2ccc(O)c(CCN(C)C)c2)c1C [Example 10, 2-(2-(dimethylamino)ethyl)-4-(1,3,4-trimethyl-1H-pyrazol-5-yl)phenol]
The Ki of the first is 5.7-fold higher: 577 ± 81.6 nM for the first, 102 nM for the second.

Compared with `CNCCc1cc(-c2c(C)c(C)nn2C)ccc1O` [Example 11, 2-(2-(methylamino)ethyl)-4-(1,3,4-trimethyl-1H-pyrazol-5-yl)phenol], `CCn1nc(C)c(C)c1-c1ccc(O)c(CCN(C)C)c1` [Example 29, 2-(2-(dimethylamino)ethyl)-4-(1-ethyl-3,4-dimethyl-1H-pyrazol-5-yl)phenol] is 4.3-fold higher in Ki: 23.5 ± 5.2 nM for the first, 102 nM for the second. The first binds more tightly here.

`COc1ccc(-c2c(-c3ccccc3)c(C)nn2-c2ccccc2)cc1CCN(C)C` [Example 19, 2-(2-methoxy-5-(3-methyl-1,4-diphenyl-1H-pyrazol-5-yl)phenyl)-N,N-dimethyl ethanamine] and `COc1ccc(-c2c(C)c(C)nn2-c2ccccc2)cc1CCN(C)C` [Example 22, 2-(5-(3,4-dimethyl-1-phenyl-1H-pyrazol-5-yl)-2-methoxyphenyl)-N,N-dimethyl ethanamine] are within error of each other in Ki: 447 ± 64.8 nM for the first, 391 nM for the second.

Compared with `Cc1nn(-c2ccccc2)c(-c2ccc(O)c(CCN(C)C)c2)c1C` [Example 23, 4-(3,4-dimethyl-1-phenyl-1H-pyrazol-5-yl)-2-(2-(dimethylamino)ethyl)phenol], `Cc1nn(C(C)C)c(-c2ccc(O)c(CCN(C)C)c2)c1C` [Example 32, 2-(2-(dimethylamino)ethyl)-4-(1-isopropyl-3,4-dimethyl-1H-pyrazol-5-yl)phenol] is 4.1-fold lower in Ki: 611 nM for the first, 150 nM for the second. The second binds more tightly here.

First: COc1ccc(-c2c3c(nn2-c2ccccc2)CCCC3)cc1CCN(C)C [Example 25, 2-(2-methoxy-5-(2-phenyl-4,5,6,7-tetrahydro-2H-indazol-3-yl)phenyl)-N,N-dimethyl ethanamine]
Second: COc1ccc(-c2c(C)c(C)nn2CC(F)(F)F)cc1CCN(C)C [Example 34, 2-(5-(3,4-dimethyl-1-(2,2,2-trifluoroethyl)-1H-pyrazol-5-yl)-2-methoxyphenyl)-N,N-dimethyl ethanamine]
The Ki of the first is 2.9-fold higher: 420 nM for the first, 146 nM for the second.

Going from `Cc1nn(C(C)C)c(-c2cccc(CCN(C)C)c2)c1C` [Example 30, 2-(3-(1-isopropyl-3,4-dimethyl-1H-pyrazol-5-yl)phenyl)-N,N-dimethylethanamine] to `Cc1nn(CC(F)(F)F)c(-c2cccc(CCN(C)C)c2)c1C` [Example 33, 2-(3-(3,4-dimethyl-1-(2,2,2-trifluoroethyl)-1H-pyrazol-5-yl)phenyl)-N,N-dimethyl ethanamine], the Ki rises from 300 nM to 527 nM (1.8-fold). The first binds more tightly here.

`Cc1nn(CC(F)(F)F)c(-c2ccc(O)c(CCN(C)C)c2)c1C` [Example 35, 4-(3,4-dimethyl-1-(2,2,2-trifluoroethyl)-1H-pyrazol-5-yl)-2-(2-(dimethylamino)ethyl)phenol] gave a Ki of 320 nM.
